# PMC10726354, “Design, Synthesis, and Biological Evaluation of Small-Molecule-Based Radioligands with Improved Pharmacokinetic Properties for Imaging of Programmed Death Ligand 1” (Journal of Medicinal Chemistry, 2023)
# Values joined by “and” are separate entries in the source; they are usually repeats but may differ in a detail not shown here. Identical values can stand only once. “Also recorded” adds a separate entry of the source. Like-named read-outs stand apart in the source and are kept apart here.
# Tests used:
# [1] = Small-animal PET, excretion pattern; assay type: in vivo, mouse; settings: PET 0–2, 4–5 and 24–25 h p.i., i.v.
# Experimental: Time points of PET imaging were 0–2, 4–5, and 24–25 h post injection (p.i.).
# PD-L1 = target: T1, PD-L1 (Homo sapiens, UniProt Q9NZQ7); test: Saturation binding assay on live PC3 PD-L1 overexpressing cells
# T1 construct: expressed in transfected cells; host or cells: PC3 cells (human prostate carcinoma), stably transduced
# T1 sequence (Q9NZQ7 19-290): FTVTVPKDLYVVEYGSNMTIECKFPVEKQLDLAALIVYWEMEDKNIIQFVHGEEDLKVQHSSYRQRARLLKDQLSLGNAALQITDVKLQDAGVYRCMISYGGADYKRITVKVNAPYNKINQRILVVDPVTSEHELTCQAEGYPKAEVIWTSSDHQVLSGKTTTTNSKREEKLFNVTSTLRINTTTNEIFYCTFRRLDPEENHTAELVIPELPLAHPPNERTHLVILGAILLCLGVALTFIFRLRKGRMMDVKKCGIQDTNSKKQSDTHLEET
# Experimental: For assessing the binding affinity of compounds [^64Cu]Cu-1–6, PC3 cells transduced with PD-L1 were used. Dissociation constants in equilibrium (KD) and maximum number of binding sites (Bmax) were determined in a saturation binding assay. The assays were performed with the addition of 2.5% bovine serum albumin (BSA) in the medium to prevent unspecific binding to plastic wells, as reported previously for our first radioligands.[1]
# For saturation binding, cells were trypsinized (0.05% Trypsin–EDTA, Gibco, USA), counted, and diluted to ∼160,000 cells/mL. 0.25 mL of the cell solution was then added to each well of a 48-well plate (Falcon Multiwell #353078) and grown for at least 2 days.
# To determine the affinity (KD) and the number of binding sites (Bmax) of the herein described PD-L1 small-molecule ligands, saturation binding was performed in at least three independent experiments, as described before.[45] Cells were brought to room temperature followed by cooling on ice (each 15 min). The medium was removed and replaced with 200 μL assay buffer [PBS + 2.5% (w/v) BSA] for total binding (TB) conditions or assay buffer containing 300 μM BMS-1166 (in DMSO, resulting in 0.03% v/v) for the assessment NSB. After 15 min preincubation, 200 μL of each of the eight serial 1:1 dilutions (500 to 3.91 nM) of the respective radioligand was added (in triplicate). Cells were then incubated for 90 min at 4 °C, washed (3 × 1 min), and lysed in 500 μL of 0.1 M NaOH + 1% SDS. Radioactivity of the lysate was measured and decay corrected to a reference time (end of radiolabeling). An additional plate was subjected to the same conditions (preincubation, incubation, and washing) using PBS without BSA for each experiment, and the protein content of these lysates was determined by BCA assay. From CPM measurements, final values (pmol/mg protein) were calculated using the mean protein content and molar activity.
# Processed data were then subjected to nonlinear iterative curve fitting (GraphPad Prism 9) to yield Bmax (in pmol/mg protein) and KD (in nM).
# [2] = Metabolite analysis in vivo; design: species or system mouse; settings: 4 h postinjection
# [3] = Kinetic stability in PBS buffer (pH 7.4), radio-HPLC; assay type: physicochemical; settings: room temperature; for intact radioligand in PBS (pH 7.4): radio-HPLC at 1, 24 and 48 h
# Experimental: The kinetic stability of all ^64Cu-labeled ligands was investigated in PBS buffer solution (pH 7.4) by incubation at room temperature and monitoring with radio-HPLC up to 48 h. […] During the time course, no changes in peak number/shape and retention time were observed, proving the stability of the compounds. […] At the 48 h time point, however, a shoulder appears with a slightly higher retention time (∼7.0 min), indicating minor decomposition (>94% intact radiotracer).
# The corresponding radiotracer was labeled with approximately 500 MBq of ^64Cu in 50 μL of HEPES solution (adjusted to pH 4.5), as described above. After successful labeling, 450 μL of PBS solution (pH 7.4) was added, and the incubation was performed (room temperature) at 300 rpm. At each time point (1, 24, and 48 h), an aliquot was withdrawn and injected into the radio-HPLC (PerkinElmer, Massachusetts, United States system C or D, Supporting Information). Evaluation and graphical plotting were performed with OriginPro 9.0.
# [4] = log D7.4 shake flask method, n-octanol/PBS; assay type: physicochemical; settings: n-octanol/PBS pH 7.4, shake flask; mean ± SD, three experiments
# Experimental: For assessing the lipophilicity of the ^64Cu-labeled PD-L1 radioligands, distribution coefficients (log D7.4 values) were determined using the shake flask method between n-octanol and PBS buffer (pH 7.4).
# n-Octanol/water distribution coefficients were determined by the shake-flask method. The experiments for each radioligand was performed in triplicate. 30 μL of the reaction mixture was added to a 1.5 mL Eppendorf tube, which contained 570 μL of PBS (pH 7.4) and 600 μL n-octanol. After shaking at room temperature at 1500 rpm for 5 min, the mixture was centrifugated. An aliquot for each phase was carefully withdrawn, and the count rates were measured using a γ-counter (ISOMED2160 sodium iodide crystal detector). The mean values were calculated, corrected for the background activity, and the log D7.4 value was calculated with following formula [drawing 1]
# [5] = saturation binding, live PC3 PD-L1 overexpressing cells, 2.5% BSA, 90 min at 4 °C, mean ± SD, at least three experiments, read-out: KD
# [6] = saturation binding, live PC3 PD-L1 overexpressing cells, 2.5% BSA, mean ± SD
# [7] = supplementary CSV, read-out: KD [nM], saturation binding assay
SMILES,excretion / clearance pattern (PET) [1],Kd (PD-L1; [5]),Bmax (maximum number of binding sites) (PD-L1; [6]),stability in circulation (metabolite analysis) [2],intact radioligand in PBS (pH 7.4) [3],log D7.4 [4],Kd (PD-L1; [7]),intact radiotracer in PBS (pH 7.4) at 48 h ([3]; 48 h)
Cc1c(COc2cc(OCc3cncc(C#N)c3)c(CN[C@@H](CS(=O)(=O)O)C(=O)NCCS(=O)(=O)O)cc2Cl)cccc1-c1cccc(OCc2cn(CCCN3CCN(C(=O)[C@H](CS(=O)(=O)O)NC(=O)CC[C@H](C(=O)O)N4CCN(CC(=O)O)CCN(CC(=O)O)CC4)CC3)nn2)c1C.[64Cu+2] [[^64Cu]Cu-1],mixed hepatobiliary and renal clearance,80.5 ± 5.02 nM,7.05 pmol·mg^–1 and 7.05 ± 0.99 pmol·mg^–1,,,,,
Cc1c(COc2cc(OCc3cncc(S(C)(=O)=O)c3)c(CN[C@@H](CS(=O)(=O)O)C(=O)NCCS(=O)(=O)O)cc2Cl)cccc1-c1cccc(OCc2cn(CCCN3CCN(C(=O)[C@H](CS(=O)(=O)O)NC(=O)CC[C@H](C(=O)O)N4CCN(CC(=O)O)CCN(CC(=O)O)CC4)CC3)nn2)c1C.[64Cu+2] [[^64Cu]Cu-3],predominantly a fast renal and lower hepatobiliary clearance,93.7 ± 10.8 nM,8.51 ± 0.48 pmol·mg^–1,overall stability of the compound in circulation,> 99%,,,
Cc1c(COc2cc(OCc3cncc(S(C)(=O)=O)c3)c(CN[C@@H](CS(=O)(=O)O)C(=O)NCCP(=O)(O)O)cc2Cl)cccc1-c1cccc(OCc2cn(CCCN3CCN(C(=O)CC[C@H](C(=O)O)N4CCN(CC(=O)O)CCN(CC(=O)O)CC4)CC3)nn2)c1C.[64Cu+2] [[^64Cu]Cu-4],almost exclusive hepatobiliary elimination; also recorded: primarily hepatobiliary clearance,82.4 ± 7.42 nM,10.7 pmol·mg^–1 and 10.7 ± 1.34 pmol·mg^–1,,> 99%,–3.07 ± 0.02,112 nM,
Cc1c(COc2cc(OCc3cncc(S(C)(=O)=O)c3)c(CN[C@@H](CS(=O)(=O)O)C(=O)NCCP(=O)(O)O)cc2Cl)cccc1-c1cccc(OCc2cn(CCCN3CCN(C(=O)[C@H](CS(=O)(=O)O)NC(=O)CC[C@H](C(=O)O)N4CCN(CC(=O)O)CCN(CC(=O)O)CC4)CC3)nn2)c1C.[64Cu+2] [[^64Cu]Cu-5],,112 ± 11 nM,19.1 pmol·mg^–1 and 19.1 ± 0.67 pmol·mg^–1,,> 99%,,82.4 nM,
Cc1c(COc2cc(OCc3cncc(S(C)(=O)=O)c3)c(CN[C@@H](CS(=O)(=O)O)C(=O)NCCP(=O)(O)O)cc2Cl)cccc1-c1cccc(OCc2cn(CCCN3CCN(C(=O)[C@H](CP(=O)(O)O)NC(=O)CC[C@H](C(=O)O)N4CCN(CC(=O)O)CCN(CC(=O)O)CC4)CC3)nn2)c1C.[64Cu+2] [[^64Cu]Cu-6],,532 nM and 533 nM,10.3 ± 0.74 pmol·mg^–1,,> 99%,–4.28 ± 0.08,,> 94%
